# Like-named read-outs stand apart in the source and are kept apart here.
# Key:
# [1] = molecular target: T1, protein kinases (human kinome) (Homo sapiens, UniProt Q14CZ7); format: cell-based; settings: Accession Q14CZ7, direction down
# T1 sequence (Q14CZ7 1-662): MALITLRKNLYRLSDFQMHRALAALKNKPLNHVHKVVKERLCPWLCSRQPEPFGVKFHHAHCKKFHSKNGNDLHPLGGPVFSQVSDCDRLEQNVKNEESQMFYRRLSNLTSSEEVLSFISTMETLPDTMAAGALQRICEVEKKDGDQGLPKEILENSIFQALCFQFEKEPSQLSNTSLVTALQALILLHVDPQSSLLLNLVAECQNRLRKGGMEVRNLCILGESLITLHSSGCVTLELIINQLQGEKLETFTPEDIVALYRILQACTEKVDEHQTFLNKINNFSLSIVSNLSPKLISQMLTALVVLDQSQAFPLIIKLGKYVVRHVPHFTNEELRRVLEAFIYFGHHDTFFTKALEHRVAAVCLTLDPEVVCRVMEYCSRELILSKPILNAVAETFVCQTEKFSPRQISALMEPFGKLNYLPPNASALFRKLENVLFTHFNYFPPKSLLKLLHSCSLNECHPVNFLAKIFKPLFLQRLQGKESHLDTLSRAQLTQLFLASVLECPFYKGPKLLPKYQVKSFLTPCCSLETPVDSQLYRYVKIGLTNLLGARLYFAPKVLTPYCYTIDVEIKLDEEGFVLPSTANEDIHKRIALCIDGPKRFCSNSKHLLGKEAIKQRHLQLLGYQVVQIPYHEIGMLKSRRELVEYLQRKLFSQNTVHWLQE
# [2] = molecular target: protein kinases (human kinome) (Homo sapiens, UniProt Q15119); format: cell-based; settings: for logFC PDK2: Accession Q15119-1
# [3] = molecular target: T2, extended human kinome (kinase-like proteins) (Homo sapiens, UniProt Q53R41); test: Whole cell quantitative proteomics: extended kinome hits
# T2 sequence (Q53R41 1-847): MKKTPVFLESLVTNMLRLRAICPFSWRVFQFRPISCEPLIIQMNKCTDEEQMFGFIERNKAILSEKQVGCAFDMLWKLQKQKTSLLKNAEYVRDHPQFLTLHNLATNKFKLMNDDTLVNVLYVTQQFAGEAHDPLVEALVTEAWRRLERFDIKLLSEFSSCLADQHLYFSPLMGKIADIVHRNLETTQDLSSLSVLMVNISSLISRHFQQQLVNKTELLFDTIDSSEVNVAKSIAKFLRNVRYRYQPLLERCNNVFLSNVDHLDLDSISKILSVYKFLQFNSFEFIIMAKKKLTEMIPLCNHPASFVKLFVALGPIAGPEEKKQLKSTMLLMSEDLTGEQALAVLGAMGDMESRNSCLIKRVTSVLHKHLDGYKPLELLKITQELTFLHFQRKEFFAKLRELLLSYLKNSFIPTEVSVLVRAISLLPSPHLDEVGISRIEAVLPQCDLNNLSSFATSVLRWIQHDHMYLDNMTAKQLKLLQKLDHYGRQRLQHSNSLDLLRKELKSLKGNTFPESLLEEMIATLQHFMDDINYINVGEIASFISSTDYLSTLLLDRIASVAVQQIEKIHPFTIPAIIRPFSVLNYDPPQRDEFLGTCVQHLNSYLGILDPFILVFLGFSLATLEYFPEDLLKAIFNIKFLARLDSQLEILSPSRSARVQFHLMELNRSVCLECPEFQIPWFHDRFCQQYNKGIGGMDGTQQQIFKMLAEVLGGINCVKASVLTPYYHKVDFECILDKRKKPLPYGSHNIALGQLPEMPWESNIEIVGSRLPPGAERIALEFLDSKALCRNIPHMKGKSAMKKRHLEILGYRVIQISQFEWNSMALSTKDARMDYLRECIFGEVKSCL
# [4] = molecular target: T3, protein kinases (human kinome) (Homo sapiens, UniProt Q9UEE5); format: cell-based; settings: STK17A Q9UEE5
# T3 sequence (Q9UEE5 1-414): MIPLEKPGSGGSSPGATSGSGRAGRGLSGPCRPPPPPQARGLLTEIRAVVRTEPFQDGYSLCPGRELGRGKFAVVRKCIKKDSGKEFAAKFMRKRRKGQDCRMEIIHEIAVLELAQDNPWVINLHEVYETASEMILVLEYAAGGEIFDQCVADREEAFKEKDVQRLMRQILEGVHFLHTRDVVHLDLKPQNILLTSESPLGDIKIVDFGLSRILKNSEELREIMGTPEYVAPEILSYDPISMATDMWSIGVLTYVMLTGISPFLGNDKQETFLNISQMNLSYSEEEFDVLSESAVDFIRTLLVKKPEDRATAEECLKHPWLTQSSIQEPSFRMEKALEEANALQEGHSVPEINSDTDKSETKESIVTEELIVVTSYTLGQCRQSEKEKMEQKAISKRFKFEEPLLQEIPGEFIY
smiles,measurement,setting,value
CN(C)C(=O)c1cc2cnc(Nc3ccc(N4CCN(CCCCNC(=O)COc5cccc6c5C(=O)N(C5CCC(=O)NC5=O)C6=O)CC4)cn3)nc2n1C1CCCC1 (stereo not drawn) [BSJ.04.132],logFC FASTKD3,[1]; experiment wp084,−0.5428
same,logFC PDK2,[2]; experiment wp084,−0.5289
same,logFC PDK2 (Q15119-1),[2]; experiment wp084,−0.5289
same,logFC FASTKD1 (Q53R41),[3]; experiment wp084,−0.6747
O=C(COc1cccc2c1C(=O)N(C1CCC(=O)NC1=O)C2=O)NCCCCCCCC(=O)NC1(c2ccc(-c3nc4ccn5c(=O)[nH]nc5c4cc3-c3ccccc3)cc2)CCC1 (stereo not drawn) [INY.01.140.1],logFC FASTKD3,[1]; experiment wp081,−0.3846
same,logFC PDK2,[2]; experiment wp081,−0.6094
same,logFC PDK2 (Q15119-1),[2]; experiment wp081,−0.6094
same,logFC FASTKD1 (Q53R41),[3]; experiment wp081,−0.4808
C=CCn1c(=O)c2cnc(Nc3ccc(N4CCN(CCCNc5cccc6c5C(=O)N(C5CCC(=O)NC5=O)C6=O)CC4)cc3)nc2n1-c1cccc(C(C)(C)O)n1 (stereo not drawn) [ZNL.02.096],logFC FASTKD3,[1]; experiment wp056,−0.7131
same,logFC PDK2,[2]; experiment wp056,−0.5561
same,logFC PDK2,[2]; experiment wp118,−0.37
same,logFC PDK2 (Q15119-1),[2]; experiment wp056,−0.5561
same,logFC PDK2 (Q15119-1),[2]; experiment wp118,−0.37
same,logFC FASTKD1 (Q53R41),[3]; experiment wp056,−0.4079
same,logFC FASTKD1 (Q53R41),[3]; experiment wp118,−0.4559
CC(C)S(=O)(=O)c1ccccc1Nc1nc(Nc2ccc(N3CCN(CCOCCOCCNC(=O)CNc4cccc5c4C(=O)N(C4CCC(=O)NC4=O)C5=O)CC3)cc2)ncc1Cl (stereo not drawn) [TL12.186],logFC FASTKD3,[1]; experiment wp137,−0.6244
same,logFC PDK2,[2]; experiment wp137,−0.5022
same,logFC PDK2 (Q15119-1),[2]; experiment wp137,−0.5022
same,logFC,[4]; experiment wp137,−0.5054
same,logFC STK17A,[4]; experiment wp137,−0.5054
same,logFC FASTKD1 (Q53R41),[3]; experiment wp137,−0.3731
CC(C)(C)c1nc(-c2cccc(NS(=O)(=O)c3c(F)cccc3F)c2F)c(-c2ccnc(NCCOCCNC(=O)CCOCCOCCNc3cccc4c3C(=O)N(C3CCC(=O)NC3=O)C4=O)n2)s1 (stereo not drawn) [DD.03.106],logFC FASTKD3,"[1]; experiment wp147, 4 uM",−0.8259
same,logFC PDK2 (Q15119-1),"[2]; experiment wp147, 4 uM",−0.727
same,logFC FASTKD1 (Q53R41),"[3]; experiment wp147, 4 uM",−0.6262
CC(=O)c1c(C)c2cnc(Nc3ccc(N4CCN(CCOCCOCCOCCNC(=O)COc5cccc6c5C(=O)N(C5CCC(=O)NC5=O)C6=O)CC4)cn3)nc2n(C2CCCC2)c1=O (stereo not drawn) [BSJ.03.123],logFC FASTKD3,[1]; experiment wp084,−0.4728
same,logFC PDK2,[2]; experiment wp084,−0.3615
same,logFC PDK2 (Q15119-1),[2]; experiment wp084,−0.3615
same,logFC FASTKD1 (Q53R41),[3]; experiment wp084,−0.5242
CC(C)S(=O)(=O)c1ccccc1Nc1nc(Nc2ccc(N3CCN(CCOCCNC(=O)CNc4cccc5c4C(=O)N(C4CCC(=O)NC4=O)C5=O)CC3)cc2)ncc1Cl (stereo not drawn) [SK.3.91],logFC FASTKD3,"[1]; experiment wp160, 1 hr",−0.997
same,logFC,"[4]; experiment wp016, 1 uM",−0.7032
same,logFC STK17A,"[4]; experiment wp016, 1 uM",−0.7032
same,logFC,[4]; experiment wp103,−0.6201
same,logFC STK17A,[4]; experiment wp103,−0.6201
same,logFC,[4]; experiment wp107,−0.6984
same,logFC STK17A,[4]; experiment wp107,−0.6984
same,logFC,"[4]; experiment wp133, 4 hr",−0.5458
same,logFC STK17A,"[4]; experiment wp133, 4 hr",−0.5458
same,logFC,[4]; experiment wp172,−0.3963
same,logFC STK17A,[4]; experiment wp172,−0.3963
same,logFC FASTKD1 (Q53R41),"[3]; experiment wp160, 1 hr",−0.8675
CC(C)(C)c1nc(-c2cccc(NS(=O)(=O)c3c(F)cccc3F)c2F)c(-c2ccnc(NCCOCCNC(=O)CCOCCOCCNc3cccc4c3CN(C3CCC(=O)NC3=O)C4=O)n2)s1 (stereo not drawn) [DD.03.107],logFC FASTKD3,"[1]; experiment wp147, 1 uM",−0.6939
same,logFC FASTKD3,"[1]; experiment wp147, 2 uM",−0.6931
same,logFC FASTKD3,"[1]; experiment wp147, 4 uM",−1.191
same,logFC PDK2,[2]; experiment wp137,−0.3383
same,logFC PDK2,"[2]; experiment wp147, 1 uM",−0.4963
same,logFC PDK2,"[2]; experiment wp147, 2 uM",−0.5351
same,logFC PDK2,"[2]; experiment wp147, 4 uM",−0.9269
same,logFC PDK2 (Q15119-1),[2]; experiment wp137,−0.3383
same,logFC PDK2 (Q15119-1),"[2]; experiment wp147, 1 uM",−0.4963
same,logFC PDK2 (Q15119-1),"[2]; experiment wp147, 2 uM",−0.5351
same,logFC PDK2 (Q15119-1),"[2]; experiment wp147, 4 uM",−0.9269
same,logFC FASTKD1 (Q53R41),"[3]; experiment wp147, 1 uM",−0.58
same,logFC FASTKD1 (Q53R41),"[3]; experiment wp147, 2 uM",−0.5044
same,logFC FASTKD1 (Q53R41),"[3]; experiment wp147, 4 uM",−0.9447

# Source: patent publication US20240269139A1, “COMPOUNDS FOR TARGETED PROTEIN DEGRADATION OF KINASES” (DANA-FARBER CANCER INSTITUTE, INC., priority 2020, published 2024)
